Measured values as given in patent US8299097B2, “Methods for treating inflammatory disorders” (The Brigham and Women's Hospital, Inc., priority 2008, dated 2012).

Legend:
human P2Y12 [1] = biological target: T1, human P2Y12 (Homo sapiens, UniProt Q9H244); assay: ERK activation (phosphorylation immunoblot) in P2Y12-expressing CHO cells; type: cell-based; set-up: polyhistidine (HIS) tag (C); expressed in transfected cells; conditions: for ERK activation by agonist: stimulated 15 min
Procedure: FIG. 1. Activation by recombinant human P2Y12 receptors in response to cys-LTs. The human P2Y12 receptor cDNA was cloned in forward and reverse orientation into the expression vector pEF1/His B and transfected into CHO cells using Fugene HD reagent. Stably-expressing clones were selected using G418 (1000 μg/ml), and expression of the construct was confirmed by cytofluorographic detection of the HIS tag. 1A. […] Results in second experiment were identical. 1B. SDS-PAGE immunoblots showing phosphorylation of ERK2 by CHO cells stably expressing human P2Y12 receptors in reverse (negative control) or forward orientations. […] The blots were stripped and re-probed with an antibody (Ab) recognizing total ERK1 and ERK2. […] 1C. Effect of the selective P2Y12 receptor antagonist 2-MesAMP (MeS) on ligand-induced ERK phosphorylation. P2Y12 receptor expressing CHO cells were stimulated with the same doses of agonists used in 1A, in the absence or presence of 2-MesAMP (100 μM). 1D. Comparison of P2Y12 receptor-mediated responses to cys-LTs with those of recombinant human CysLT1R and CysLT2R expressed in CHO cells, and the effect of the CysLT1R antagonist MK571 (1 μM). Data in 1B-1D are from individual experiments that were repeated at least 3 times with similar results.
FIG. 8. […] Cells were stably transfected with the human P2Y12 construct and stimulated for 15 minutes with the indicated ligand concentrations. […] Results in a second experiment were similar.
A P2Y12 receptor cDNA was amplified by reverse transcriptase polymerase chain reaction (RT-PCR) from RNA extracted from primary hMCs and cloned into a mammalian expression vector. Expression was confirmed by detection of a histidine (HIS) tag by flow cytometry. Another cohort of CHO cells were stably transfected with a P2Y12 receptor construct in reverse orientation as a negative control. […] The cys-LT-induced ERK activation blocked by pre-treatment of the cells with pertussis toxin (PTX), was attenuated by treatment with the P2Y12 receptor-selective antagonist 2-methylthioadenosine monophosphate (2-MesAMP) (FIG. 1C), and was resistant to MK571, an inhibitor that blocks CysLT1R and some P2Y receptors (Mamedova, L., et al. 2005. Biochem. Pharmacol. 71:115-125). […] These responses were resistant to PTX and 2-MesAMP, and susceptible to MK571 in the case of the CysLT1R transfectants.
A human P2Y12 receptor cDNA was amplified by 30 cycles of PCR from reverse-transcribed total RNA extracted from primary cord blood hMCs. The primer sequences were 5′-[…] (SEQ ID NO: 1) and 3′-[…] (SEQ ID NO: 2). The fragment was cloned into a TA vector (INVITROGEN™). After verifying the nucleotide sequence, the fragment was subcloned into the multiple cloning site of the expression vector pEF1/His B, encoding a C-terminal polyhistidine (HIS) tag. […]

human P2Y12 [2] = biological target: T1, human P2Y12; assay: Binding of [P^33]2-MesADP and [H^3]LTE4 to membranes of COS-7 cells transfected with the human P2Y12 construct; set-up: polyhistidine (HIS) tag (C); expressed in transfected cells; host or cells: COS-7 cells, transient; conditions: COS-7 membranes, forward P2Y12 construct
Procedure: FIG. 10. Competitive ligand binding assays. 10A. […] Specific binding (typically 50-75% of the total) was calculated by subtracting the amount of radiolabel that was insensitive to the selective P2Y12 receptor antagonist 2-MesAMP. Nonspecific binding was essentially identical in the membranes with and without P2Y12 receptor knockdown. The dose response for the LAD2 membranes are from a single experiment repeated four times with similar results. The binding on the LAD2 cells with P2Y12 knocked down was repeated twice. 10B. Specific binding of radiolabeled ADP (2000 nM) to membranes of LAD2 cells. […] Results are mean±SD from three separate experiments. 10C. Conversion of radiolabeled LTD4 to LTE4 as confirmed by HPLC (left). […] Results in a second experiment were similar 10D. Competitive binding of radiolabeled 2-MesADP to COS-7 cells transfected with the human P2Y12 construct.
Competitive radioligand binding assays were performed using [H^3]ADP (the known natural ligand of P2Y12 receptors) and unlabeled LTs as competitors. […] The membranes from the transfectants expressing the forward construct bound [P^33]2-MesADP, a selective P2Y12 receptor agonist.

T1 sequence (Q9H244 whole entry): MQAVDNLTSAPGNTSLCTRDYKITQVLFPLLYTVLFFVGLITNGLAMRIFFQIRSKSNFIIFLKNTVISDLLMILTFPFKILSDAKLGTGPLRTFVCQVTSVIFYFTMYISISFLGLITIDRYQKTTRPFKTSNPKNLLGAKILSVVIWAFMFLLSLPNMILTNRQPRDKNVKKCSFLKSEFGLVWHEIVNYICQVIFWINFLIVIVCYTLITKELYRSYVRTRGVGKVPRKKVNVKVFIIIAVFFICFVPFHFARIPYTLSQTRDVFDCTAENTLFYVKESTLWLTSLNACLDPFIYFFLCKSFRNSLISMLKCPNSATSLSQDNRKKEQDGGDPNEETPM

## CCCCC/C=C\C\C=C/C=C/C=C/[C@@H](SC[C@H](N)C(=O)NCC(=O)O)[C@@H](O)CCCC(=O)O [LTD4]
Human P2Y12 [1]
  ERK activation by agonist: robust, dose-dependent ERK activation
Human P2Y12 [2]
  competition for [P^33]2-MesADP binding: not competed

## CCCCC/C=C\C\C=C/C=C/C=C/[C@@H](SC[C@H](N)C(=O)O)[C@@H](O)CCCC(=O)O [LTE4]
Human P2Y12 [1]
  ERK activation by agonist: robust, dose-dependent ERK activation
Human P2Y12 [2]
  binding of [H^3]LTE4 to membranes: failed to bind
  competition for [P^33]2-MesADP binding: not competed

## CN(C)C(=O)CCSC(SCCC(=O)O)c1cccc(/C=C/c2ccc3ccc(Cl)cc3n2)c1 (stereo not drawn) [MK571]
Human P2Y12 [1]; 2-MesAMP 100 μM, MK571 1 μM
  effect on cys-LT-induced ERK activation: resistant
